Source: ChEMBL document CHEMBL1201862, “PubChem BioAssay data set” (2004)
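1) Cells in 96-well plates. 2) Compound, 48 h, 5 concentrations. 3) Linear interpolation between surrounding doses. 4) Unreached endpoint = highest concentration. GI50: concentration for 50% inhibition of growth.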 Active and inactive are the calls of the source. No stated cut-off is given here; in the data, active = GI50 up to about 1.1 µM and inactive = higher.

What was measured:
Assay in all cases: NCI anticancer screen, dose series, 48 h
[1] = tested on: NCI-H23
[2] = tested on: HCC 2998
[3] = tested on: K562
[4] = tested on: U-251
[5] = tested on: Malme-3M
[6] = tested on: SW-620
[7] = tested on: HT-29
[8] = tested on: OVCAR-5
[9] = tested on: 786-0
[10] = tested on: SK-MEL-2
[11] = tested on: SK-MEL-28
[12] = tested on: TK-10
[13] = tested on: NCI-H460
[14] = tested on: OVCAR-8
[15] = tested on: SNB-19
[16] = tested on: RPMI-8226
[17] = tested on: HOP-92

Measured: GI50

CC#CC1/C(=C\C(=O)OC)CCCC1O (configuration not stated)
inactive: [1] > 100 µM | [2] > 100 µM | [3] > 100 µM | [4] > 100 µM | [5] > 100 µM | [6] > 100 µM | [7] > 100 µM | [8] > 100 µM | [9] > 100 µM | [10] > 100 µM | [11] > 100 µM | [12] > 100 µM | [13] > 100 µM | [14] > 100 µM | [15] > 100 µM

COC(=O)C(C(=O)C(=O)Nc1ccccc1C)c1nc2ccc([N+](=O)[O-])cc2nc1O (configuration not stated)
inactive: [1] > 100 µM | [2] > 100 µM | [3] > 100 µM | [4] > 100 µM | [5] > 100 µM | [6] > 100 µM | [7] > 100 µM | [16] > 100 µM | [8] > 100 µM | [9] > 100 µM | [10] > 100 µM | [11] > 100 µM | [12] > 100 µM | [13] > 100 µM | [14] > 100 µM | [15] > 100 µM

CC1(C)OC(C[C@]2(C#N)C[C@H](CCl)OC(C)(C)O2)C[C@@H](C[C@]2(C#N)C[C@H](CCl)OC(C)(C)O2)O1 (some centres not stated)
inactive: [1] > 100 µM | [2] > 100 µM | [3] > 100 µM | [4] > 100 µM | [5] > 100 µM | [17] > 100 µM | [6] > 100 µM | [7] > 100 µM | [16] > 100 µM | [8] > 100 µM | [9] > 100 µM | [10] > 100 µM | [11] > 100 µM | [12] > 100 µM | [13] > 100 µM | [14] > 100 µM | [15] > 100 µM

CSc1ccc2c(cc1=O)[C@@H](NC(=O)c1cc(O)c(O)c(O)c1)CCc1cc(O)c(O)c(O)c1-2
inactive: [1] 20 µM | [2] > 100 µM | [3] 3.8 µM | [4] 18.6 µM | [5] 30 µM | [6] 17.1 µM | [7] 24 µM | [8] 15 µM | [9] 34.6 µM | [11] 32.3 µM | [12] 41.6 µM | [13] 20 µM | [14] 24 µM | [15] 81.3 µM

O=C1C(Cl)=C(Cl)C(=O)N1c1ccc(Cl)c(Cl)c1Cl
inactive: [1] 61.8 µM | [2] > 100 µM | [3] 30.5 µM | [4] > 100 µM | [5] 31.6 µM | [17] 24.7 µM | [6] 35.5 µM | [7] 51.4 µM | [16] 34 µM | [8] > 100 µM | [9] 44.5 µM | [10] > 100 µM | [11] > 100 µM | [12] > 100 µM | [13] > 100 µM | [15] 57.8 µM

NC(=O)COc1ccc(Br)cc1Br
inactive: [1] > 100 µM | [3] > 100 µM | [4] > 100 µM | [5] > 100 µM | [17] > 100 µM | [6] > 100 µM | [7] > 100 µM | [16] 51.9 µM | [8] > 100 µM | [9] > 100 µM | [10] > 100 µM | [11] > 100 µM | [13] > 100 µM | [14] > 100 µM | [15] > 100 µM

N#CC1CCCCC1NC1(C#N)CCCCC1 (configuration not stated)
inactive: [1] > 100 µM | [2] > 100 µM | [3] > 100 µM | [4] > 100 µM | [5] > 100 µM | [6] > 100 µM | [7] > 100 µM | [16] > 100 µM | [9] > 100 µM | [10] > 100 µM | [11] > 100 µM | [12] > 100 µM | [14] > 100 µM | [15] > 100 µM

O=C1OCCC1C(O)C1c2ccccc2-c2ccccc21 (configuration not stated)
inactive: [1] > 100 µM | [3] > 100 µM | [4] > 100 µM | [5] > 100 µM | [17] > 100 µM | [6] > 100 µM | [7] > 100 µM | [16] > 100 µM | [8] > 100 µM | [9] > 100 µM | [10] > 100 µM | [11] > 100 µM | [12] > 100 µM | [13] > 100 µM | [14] > 100 µM | [15] > 100 µM

S=c1c2ccccc2c(=S)n2n1CC=CC2
inactive: [1] > 100 µM | [2] > 100 µM | [3] > 100 µM | [4] > 100 µM | [5] > 100 µM | [17] > 100 µM | [6] > 100 µM | [7] > 100 µM | [16] > 100 µM | [8] > 100 µM | [9] > 100 µM | [10] > 100 µM | [11] > 100 µM | [12] > 100 µM | [14] > 100 µM | [15] > 100 µM

CCCCCCc1cc2c(C)c(C)c(=O)oc2cc1OCCCOc1cc2oc(=O)c(C)c(C)c2cc1CCCCCC
inactive: [1] > 100 µM | [3] > 100 µM | [4] > 100 µM | [5] > 100 µM | [17] > 100 µM | [6] > 100 µM | [7] > 100 µM | [16] > 100 µM | [8] > 100 µM | [9] > 100 µM | [10] > 100 µM | [11] > 100 µM | [12] > 100 µM | [13] > 100 µM | [14] > 100 µM | [15] > 100 µM

CCOC(=O)C(C)(C)Oc1ccc2c(C)c(-c3ccc(Cl)cc3)c(=O)oc2c1
inactive: [1] 19.6 µM | [2] 59 µM | [3] 14.7 µM | [4] 42.4 µM | [5] 33.3 µM | [6] > 100 µM | [7] 20.7 µM | [16] 22.6 µM | [9] > 100 µM | [10] > 100 µM | [11] > 100 µM | [12] > 100 µM | [13] > 100 µM | [14] > 100 µM | [15] 51.1 µM

Cc1ccc2nc3c(C(=O)NCCN(C)C)cccc3nc2c1
inactive: [1] 4.26 µM | [2] 6.05 µM | [3] 2.47 µM | [4] 5.55 µM | [5] 2.47 µM | [17] 2.38 µM | [6] 1.92 µM | [7] 2.32 µM | [16] 3.6 µM | [8] 6.34 µM | [9] 11.5 µM | [10] 2.76 µM | [11] 4.7 µM | [12] 3.73 µM | [14] 3.48 µM | [15] 5.96 µM

CC1(C)CCC(=O)c2c(O)ccc(O)c21
inactive: [1] > 100 µM | [2] > 100 µM | [3] 26.1 µM | [4] > 100 µM | [5] > 100 µM | [17] 15.4 µM | [6] 48.4 µM | [7] 30.1 µM | [16] 55.3 µM | [8] > 100 µM | [9] > 100 µM | [10] 86.5 µM | [11] 39.8 µM | [12] > 100 µM | [14] 91.8 µM | [15] > 100 µM
